Test results taken from patent publication US20090318446A1, “4-(1H-Indol-3-yl)-Pyrimidin-2-Ylamine Derivatives and Their Use in Therapy” (Cyclacel Limited, priority 2005, published 2009).
Like-named read-outs stand apart in the source and are kept apart here.

Experiments:
Type in all cases: biochemical
CDK4/cyclin D1 = CDK4/cyclin D1 (Homo sapiens, UniProt P11802); experiment: Kinase assay CDK4/cyclin D1
Description: The compounds from the examples above were investigated for their ability to inhibit the enzymatic activity of various protein kinases. This was achieved by measurement of incorporation of radioactive phosphate from ATP into appropriate polypeptide substrates. Recombinant protein kinases and kinase complexes were produced or obtained commercially. Assays were performed using 96-well plates and appropriate assay buffers (typically 25 mM β-glycerophosphate, 20 mM MOPS, 5 mM EGTA, 1 mM DTT, 1 mM […], pH 7.4), into which were added 2-4 μg of active enzyme with appropriate substrates. The reactions were initiated by addition of Mg/ATP mix (15 mM MgCl2+100 μM ATP with 30-50 kBq per well of [γ-^32P]-ATP) and mixtures incubated as required at 30° C. Reactions were stopped on ice, followed by filtration through p81 filterplates or GF/C filterplates (Whatman Polyfiltronics, Kent, UK). After washing 3 times with 75 mM aq orthophosphoric acid, plates were dried, scintillant added and incorporated radioactivity measured in a scintillation counter (TopCount, Packard Instruments, Pangbourne, Berks, UK). Compounds for kinase assay were made up as 10 mM stocks in DMSO and diluted into 10% DMSO in assay buffer. Data was analysed using curve-fitting software (GraphPad Prism version 3.00 for Windows, GraphPad Software, San Diego Calif. USA) to determine IC50 values (concentration of test compound which inhibits kinase activity by 50%).

aurora-A = biological target: T1, aurora-A (Homo sapiens, UniProt O14965); experiment: Aurora-A (human) kinase assay
T1 construct: purchased Upstate, Dundee, UK
T1 sequence (O14965 1-403): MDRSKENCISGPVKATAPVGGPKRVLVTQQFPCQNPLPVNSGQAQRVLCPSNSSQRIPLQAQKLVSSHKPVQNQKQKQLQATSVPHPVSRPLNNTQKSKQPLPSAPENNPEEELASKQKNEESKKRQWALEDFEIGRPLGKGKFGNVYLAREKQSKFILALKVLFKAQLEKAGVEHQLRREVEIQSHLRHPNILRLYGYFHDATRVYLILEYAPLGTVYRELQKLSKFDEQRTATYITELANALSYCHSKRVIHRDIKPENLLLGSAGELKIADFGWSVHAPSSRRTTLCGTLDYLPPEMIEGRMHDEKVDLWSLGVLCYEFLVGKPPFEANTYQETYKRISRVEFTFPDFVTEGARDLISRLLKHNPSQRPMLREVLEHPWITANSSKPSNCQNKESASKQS
Description: (§1) This was achieved by measurement of incorporation of radioactive phosphate from ATP into Kemptide substrate (LRRASLG), upon phosphorylation by commercially obtained aurora-A (human, Upstate, Dundee, UK). Assays were performed using 96-well plates and appropriate assay buffers (20 mM Tris, 25 mM β-glycerophosphate, 5 mM EGTA, 1 mM DTT, 1 mM sodium vanadate, pH 7.5), into which were added 2-5 ng of active enzyme with 500 μM substrate (Kemptide). The reactions were initiated by addition of MgATP mix (15 mM MgCl2+100 μM ATP with 15-25 kBq per well of [γ-^32P]-ATP) and mixtures incubated for 30 min at 30° C. Reactions were stopped by addition of an equal volume of 75 mM aq orthophosphoric acid, followed by filtration through p81 filterplates (Whatman Polyfiltronics, Kent, UK). After washing 4 times with 75 mM aq orthophosphoric acid, plates were dried, scintillant added and incorporated radioactivity measured in a scintillation counter (TopCount, Packard Instruments, Pangbourne, Berks, UK). Compounds for kinase assay were made up as 10 mM stocks in DMSO and diluted into 10% DMSO in assay buffer. Data was analysed using curve-fitting software (XLfit version 4.0.2, IDBS, Guildford, Surrey, UK) to determine IC50 values (concentration of test compound which inhibits kinase activity by 50%).

aurora-B = biological target: T2, aurora-B (Homo sapiens, UniProt Q96GD4); experiment: Aurora-B (human) kinase assay; conditions: Table 3; read-out: Kinase inhibition Aurora B
T2 construct: purchased Upstate, Dundee, UK
Description: as §1, with “obtained aurora-B” for “obtained aurora-A”, “added 75” for “added 2-5”, “of pre-activated” for “of active”, “for 60” for “for 30”
Aurora-B (human, Upstate, Dundee, UK) was pre-activated immediately prior to kinase assay in appropriate buffers (20 mM Tris, 25 mM β-glycerophosphate, 5 mM EGTA, 1 mM DTT, 1 mM sodium vanadate, pH 7.5) by incubating 15 μg of enzyme with 4 μg INCENP (Upstate, Dundee, UK) in the presence of MgATP mix (15 mM MgCl2+100 μM ATP) for 15 min at 30° C.

[1] = Table 2, read-out: Kinase inhibition IC50 CDK4D1
[2] = Table 2, read-out: Kinase inhibition IC50 Aurora A
[3] = Table 3, read-out: Kinase inhibition CDK4D1
[4] = Table 3, values without asterisk, read-out: Kinase inhibition Aurora A

T2 sequence (Q96GD4 whole entry): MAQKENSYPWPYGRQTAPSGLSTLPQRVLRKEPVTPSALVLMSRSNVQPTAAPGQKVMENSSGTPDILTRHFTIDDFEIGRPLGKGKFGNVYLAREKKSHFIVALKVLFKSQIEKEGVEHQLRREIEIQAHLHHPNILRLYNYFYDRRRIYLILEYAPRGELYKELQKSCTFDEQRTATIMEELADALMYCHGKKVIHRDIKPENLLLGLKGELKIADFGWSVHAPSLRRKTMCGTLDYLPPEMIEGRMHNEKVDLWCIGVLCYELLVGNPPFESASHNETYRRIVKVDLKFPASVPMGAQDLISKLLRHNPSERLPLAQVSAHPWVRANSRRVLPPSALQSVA
Sequence of CDK4/cyclin D1 (P11802 whole entry, species assumed): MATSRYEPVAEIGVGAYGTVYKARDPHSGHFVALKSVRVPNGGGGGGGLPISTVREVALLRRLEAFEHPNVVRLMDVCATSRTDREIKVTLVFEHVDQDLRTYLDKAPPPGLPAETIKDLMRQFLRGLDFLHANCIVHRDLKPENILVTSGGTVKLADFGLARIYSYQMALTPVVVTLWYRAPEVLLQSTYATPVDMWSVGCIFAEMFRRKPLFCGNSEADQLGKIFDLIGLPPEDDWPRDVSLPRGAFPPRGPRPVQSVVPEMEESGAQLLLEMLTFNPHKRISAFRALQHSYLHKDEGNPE
Sequence of CDK4/cyclin D1 (P24385 whole entry partner, species assumed): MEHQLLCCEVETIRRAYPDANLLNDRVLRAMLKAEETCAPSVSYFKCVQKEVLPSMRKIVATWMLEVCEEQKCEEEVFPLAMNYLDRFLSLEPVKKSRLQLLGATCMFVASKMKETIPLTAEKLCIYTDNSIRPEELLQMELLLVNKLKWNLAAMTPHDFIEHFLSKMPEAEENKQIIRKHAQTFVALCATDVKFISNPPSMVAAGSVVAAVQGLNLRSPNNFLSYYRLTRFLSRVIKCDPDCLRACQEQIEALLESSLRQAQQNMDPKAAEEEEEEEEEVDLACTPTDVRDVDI

Row | Compound | IC50 (CDK4/cyclin D1; [1]) | IC50 (aurora-A; [2]) | IC50 (CDK4/cyclin D1; [3]) | IC50 (aurora-B) | IC50 (aurora-A; [4])
1 | O=[N+]([O-])c1cccc(Nc2nccc(-c3c[nH]c4ccccc34)n2)c1 [Compound 2, [4-(1H-Indol-3-yl)-pyrimidin-2-yl]-(3-nitro-phenyl)-amine] | > 100000 nM | 270 nM |  |  | 
2 | Fc1ccc(Nc2nccc(-c3c[nH]c4ccccc34)n2)cc1 [Compound 3, (4-Fluoro-phenyl)-[4-(1H-indol-3-yl)-pyrimidin-2-yl]-amine] | > 100000 nM | 1100 nM |  |  | 
3 | COc1ccc(Nc2nccc(-c3c[nH]c4ccccc34)n2)cn1 [Compound 4, [4-(1H-Indol-3-yl)-pyrimidin-2-yl]-(6-methoxy-pyridin-3-yl)-amine] | 1000 nM | 240 nM | 1000 nM |  | 
4 | c1ccc2c(-c3ccnc(Nc4ccc(N5CCOCC5)cc4)n3)c[nH]c2c1 [Compound 5, [4-(1H-Indol-3-yl)-pyrimidin-2-yl]-(4-morpholin-4-yl-phenyl)-amine] |  | 58 nM |  | 260 nM | 804 nM
5 | CC(=O)N1CCN(c2ccc(Nc3nccc(-c4c[nH]c5ccccc45)n3)cc2)CC1 [Compound 6, 4-(1H-indol-3-yl)-N-(4-acetylpiperazin-1-ylphenyl)pyrimidin-2-amine] |  |  | 4390 nM | 125 nM | 130 nM
6 | c1ccc2c(-c3ccnc(Nc4ccc(N5CCNCC5)cc4)n3)c[nH]c2c1 [Compound 7, 4-(1H-indol-3-yl)-N-(4-piperazin-1-ylphenyl)pyrimidin-2-amine] |  |  | 426 nM | 170 nM | 221 nM
7 | CC1CN(c2ccc(Nc3nccc(-c4c[nH]c5ccccc45)n3)cc2)CC(C)O1 (stereo not drawn) [Compound 9] |  |  | 5460 nM | 158 nM | 277 nM
8 | CN(C)c1ccc(Nc2nccc(-c3c[nH]c4ccccc34)n2)cc1 [Compound 10, N′-[4-(1H-indol-3-yl)pyrimidin-2-yl]-N,N-dimethylbenzene-1,4-diamine] |  |  | 5780 nM | 729 nM | 282 nM
9 | COc1cc(Nc2nccc(-c3c[nH]c4ccccc34)n2)cc(OC)c1OC [Compound 12, 4-(1H-indol-3-yl)-N-(3,4,5-trimethoxyphenyl)pyrimidin-2-amine] |  |  |  | 66.4 nM | 53.4 nM
10 | COc1cc(Nc2nccc(-c3c[nH]c4ccccc34)n2)ccc1N1CCOCC1 [Compound 13, 4-(1H-indol-3-yl)-N-(3-methoxyl-4-morpholin-4-ylphenyl)pyrimidin-2-amine] |  |  |  | 228 nM | 112 nM
11 | CC(=O)N1CCN(c2ccc(Nc3nccc(-c4c(C)[nH]c5ccccc45)n3)cc2)CC1 [Compound 22] |  |  |  | 24.6 nM | 37.7 nM
12 | CC(=O)N1CCN(c2ccc(Nc3nccc(-c4c[nH]c5c(C)cccc45)n3)cc2)CC1 [Compound 23] |  |  |  | 76.1 nM | 91.7 nM
